Where no end group is shown, it is not given here.
Experiments:
[1] = molecular target: T1, PD-1 on the surface of Jurkat T cells (Homo sapiens, UniProt Q15116); assay: Immunofluorescence and flow cytometry analysis of specific binding of FITC-stained peptides to Jurkat T cells; type: cell-based; conditions: flow cytometry; 10 μM or 40 μM FITC peptide
T1 construct: when Jurkat cells were stimulated by PMA, they highly expressed PD-1; endogenous in cells; host or cells: Jurkat T cells stimulated with PMA and ionomycin
Experimental: (§1) Experiments were divided into an experimental group and a control group. In the experimental group, Jurkat T cells were stimulated for 24 hours with 50 ng/ml of Phorbol 12-myristate 13-acetate (PMA) and 1 ug/ml of Ionomycin Calcium Salt (Ionomycin) to express PD-1, while in the control group, Jurkat T cells were not stimulated and thus hardly expressed any PD-1. For immunofluorescence analysis, Jurkat T cells (1×10^6) were obtained and blocked with 2% BSA for 1 hour at room temperature to decrease specific binding. After blocking, the cells were collected and incubated with 10 μM of peptides stained with FITC (green fluorescence) for 1 hour at 37° C. PBS was used for washing the cells three times and 4% paraformaldehyde was used for immobilization. […] PBS was used for washing three times again and anti-fade mounting medium was used for preserving fluorescence. Further, fluorescence confocal microscope images were analyzed by using Image J software to evaluate the ability of polypeptides to compete the binding sites of PD-1. […] Subsequently, the cells were incubated with 10 μM or 40 μM of peptides stained with FITC (green fluorescence) for 1 hour at 4° C. PBS was used for washing three times, and finally 500 ul of PBS was used for resuspending the cells, which were then transferred to flow tubes and analyzed by flow cytometry (CytoFLEX, BECK MANCOULTER, America).

[2] = molecular target: T2, PD-1 expressed on the surface of stimulated Jurkat T cells (Homo sapiens, UniProt Q15116); assay: Blocking capacity: competitive binding to PD-1 on stimulated Jurkat T cells (immunofluorescence, mean fluorescence intensity); type: cell-based; conditions: 1 hour incubation, equal concentration
T2 construct: when Jurkat cells were stimulated by PMA, they highly expressed PD-1; endogenous in cells; host or cells: Jurkat T cells stimulated with PMA and ionomycin
Experimental: as §1, with “America). […]” for “America).”

[3] = molecular target: T3, recombinant Human PD-L1 protein binding to PD-1-expressing Jurkat T cells (Homo sapiens, UniProt Q15116); assay: Neutralization of recombinant Human PD-L1 protein binding to PD-1-expressing Jurkat T cells (flow cytometry); type: cell-based; conditions: peptide 0.4-40 μM mixed with PD-L1 protein, stimulated Jurkat T cells
T3 construct: when Jurkat cells were stimulated by PMA, they highly expressed PD-1; host or cells: Jurkat T cells stimulated with PMA and ionomycin
Experimental: The Jurkat T cells were divided into two groups, an experimental group and a control group, wherein in the experimental group, 50 ng/ml of Phorbol 12-myristate 13-acetate (PAM) and 1 ug/ml of Ionomycin Calcium Salt (Ionomycin) were used to stimulate the cells, and in the control group, Jurkat T cells were unstimulated. The cells (5×10^5) were collected in each tube, and washed once with FACS buffer (PBS with 2% BSA). Then recombinant Human PD-L1 protein (PD1-H82F3, Acro Biosystems) was diluted to 4 ug/ml with FACS, and PD-1 binding peptides were diluted with FACS to a series of concentrations of 0.4 μM, 1.33 μM, 4 μM, 13.3 μM, and 40 μM. Subsequently, the two working solutions (PD-L1 protein diluent and peptide diluent) were mixed in an equal volume and 100 ul of mixed solutions at different concentrations were added to the centrifuge tubes together with the cells, incubated for 1 hour at 4° C. FACS buffer was used for washing the cells three times, and 0.12 ug/ml of APC Streptavidin (405207, Biolegend) was added to each tube and the incubation was performed for 1 hour at 4° C., and then the cells were washed three times with FACS buffer again, and 500 μl of PBS was added to resuspend the cells, which were further transferred to flow tubes and analyzed by flow cytometry.
Further, neutralization capacity of nABP284 and new peptides to recombinant Human PD-L1 protein were studied. […]

Jurkat T cells = assay: CCK-8 cytotoxicity assay on Jurkat T cells; type: cell-based, Human; conditions: CCK-8, 1-64 μM, 24 hours
Experimental: (§2) Cytotoxicity assay was performed and measured with Cell Counting Kit-8 (CCK-8, Dujindo, Japan). Jurkat cells (each well with 4000 cells), PBMCs (each well with 4000 cells) and Cal27 cells (each well with 2000 cells) were added into a 96-well plate and cultured for 24 hours, respectively. nABP284, nABP386 and nABP486 in a concentration gradient of 1 μM, 2 μM, 3 μM, 4 μM, 8 μM, 16 μM, 32 μM and 64 μM were added into the medium and the cells were cultured for 24 hours in a cell incubator. After that, 10 μl of CCK-8 solution was added to each well and the cells were incubated for 2 hours. VictorX5 Multilabel plate reader (PerkinElmer, Singapore) was used for measuring absorbance of each well at 450 nm. Cell viability (%) was calculated by the following formula:
(§3) Cell viability (%)=[(Sample A−Background A)/(Control A−Blank A)×100%. • Wherein Sample A denotes the absorbance of the experimental well (including cells, CCK-8 solution, medium and peptide diluent) • Background A denotes the absorbance of the background hole (including CCK-8 solution, medium, and peptide diluent without cells); • Control A denotes the absorbance of the control hole (including cells, CCK-8 solution and medium without peptide diluent); and • Blank A denotes the absorbance of the blank hole (including CCK-8 solution and medium without cells and peptide diluent).

Cal27 cells = assay: CCK-8 cytotoxicity assay on Cal27 cells; type: cell-based, Human; conditions: CCK-8, 1-64 μM, 24 hours
Experimental: as §2, §3

[4] = tested on: PD-1/PD-L1 interaction in Jurkat T / Cal27 co-culture; assay: Co-culture of stimulated Jurkat T cells and stimulated Cal27 cells, IL-2 ELISA; type: cell-based, Human; conditions: 10 μM peptide or 2 ug/ml antibody, 24 hours co-culture, compared with the control group
Experimental: 50 ng/ml of Phorbol 12-myristate 13-acetate (PMA) and 1 ug/ml of Ionomycin Calcium Salt (Ionomycin) were used for stimulating Jurkat T cells for 24 hours, and 500 U/ml of IFN-γ was used for stimulating CAL27 cells for 48 hours. The stimulated Jurkat T cells were incubated with 10 μM of nABP284, 10 μM of nABP386, 10 μM of nABP486, and 2 ug/ml of PD-1 functional monoclonal antibody (J116, eBioscience|ThermoFisher Science) for 1 hour in advance at 37° C., respectively, and the stimulated CAL27 cells were added to the 96-well plate at 1×10^4 cells per well. When CAL27 cells were immobilized, a supernate was removed. The Jurkat T cells at a ratio of 4 to 1 and 200 ul of medium were added to each well. After these cells were co-cultured for 24 hours, a supernate was collected and analyzed by ELISA kit (88-7025-86, Thermo Fisher Scientific) to measure the amount of IL-2 in the supernate.

PD-1 [5] = molecular target: T4, PD-1 (Homo sapiens, UniProt Q15116); conditions: in vitro, prior patent; cited from earlier work
Target sequence in this assay (Q15116 25-288): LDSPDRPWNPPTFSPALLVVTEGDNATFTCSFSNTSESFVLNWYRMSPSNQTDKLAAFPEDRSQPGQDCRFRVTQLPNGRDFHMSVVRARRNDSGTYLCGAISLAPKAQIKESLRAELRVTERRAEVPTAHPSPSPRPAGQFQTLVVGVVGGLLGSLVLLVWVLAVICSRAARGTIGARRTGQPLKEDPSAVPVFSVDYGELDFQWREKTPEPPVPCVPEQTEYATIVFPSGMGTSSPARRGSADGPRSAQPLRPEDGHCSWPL

tumor = conditions: prior patent; cited from earlier work
PD-1 [6] = molecular target: T4, PD-1; assay: SPR affinity assay on recombinant Human PD-1 protein (Biocore T100, CM5 chip); type: binding; parameters: purchased Acro Biosystems PD1-H5221
Experimental: The affinity of the peptides was tested with Biocore T100 through surface plasmon resonance (SPR) technique. […] Finally, the affinities (Kd-value) of the peptides were calculated by fitting curves in the sensor diagram in Biacore software.
The binding affinities (Kd-value) of nABP386, nABP486, and nABP786 to PD-1 were detected by Surface plasma resonance (SPR), respectively.
Target sequence in this assay (Q15116 25-167 limits assumed): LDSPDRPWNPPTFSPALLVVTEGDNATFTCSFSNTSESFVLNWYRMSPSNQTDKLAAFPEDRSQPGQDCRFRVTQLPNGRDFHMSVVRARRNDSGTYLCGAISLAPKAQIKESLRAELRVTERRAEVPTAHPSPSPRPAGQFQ

T1 sequence (Q15116 25-288): as the sequence (Q15116 25-288) above
T2 sequence (Q15116 25-288): as above
T3 sequence (Q15116 25-288): as above

## SRLKEIANSPTQFWRMVARNTLGGAKQSLNIEHARL [nABP284]
[1]
  binding rate to PD-1-expressing Jurkat T cells: may increase with its increasing concentration
[2]
  blocking capacity on PD-1 (mean fluorescence intensity): have a blocking capacity on PD-1 expressed on the surface of stimulated Jurkat T cells
[3]
  neutralization capacity to recombinant Human PD-L1 protein: can be inhibited
Jurkat T cells
  direct cytotoxicity to Jurkat T cells: no directly cytotoxicity
Cal27 cells
  direct cytotoxicity to Cal27 cells: no directly cytotoxicity
[4]
  secretion level of IL-2 in the co-culture system: significantly increased
PD-1 [5]
  blocking of PD-L1 ligand binding to PD-1: can block the binding of PD-L1 ligand to PD-1
  secretion of IL-2 and tumor cytotoxicity of T lymphocytes: enhance the secretion of interleukin 2 (IL-2) and tumor cytotoxicity of T lymphocytes
tumor
  tumor growth in mice: inhibit tumor growth in mice
PD-1 [6]
  binding affinity to PD-1, in words: can specifically bind to PD-1 with moderate affinity
